Laboratory results as given in ChEMBL document CHEMBL3991601, “The target landscape of clinical kinase drugs” (Science, 2017).
Activity calls are given as the source filed them.

Columns and labels:
[1] = molecular target: T1, Very long-chain specific acyl-CoA dehydrogenase, mitochondrial (Homo sapiens, UniProt P49748)
T1 sequence (P49748 whole entry): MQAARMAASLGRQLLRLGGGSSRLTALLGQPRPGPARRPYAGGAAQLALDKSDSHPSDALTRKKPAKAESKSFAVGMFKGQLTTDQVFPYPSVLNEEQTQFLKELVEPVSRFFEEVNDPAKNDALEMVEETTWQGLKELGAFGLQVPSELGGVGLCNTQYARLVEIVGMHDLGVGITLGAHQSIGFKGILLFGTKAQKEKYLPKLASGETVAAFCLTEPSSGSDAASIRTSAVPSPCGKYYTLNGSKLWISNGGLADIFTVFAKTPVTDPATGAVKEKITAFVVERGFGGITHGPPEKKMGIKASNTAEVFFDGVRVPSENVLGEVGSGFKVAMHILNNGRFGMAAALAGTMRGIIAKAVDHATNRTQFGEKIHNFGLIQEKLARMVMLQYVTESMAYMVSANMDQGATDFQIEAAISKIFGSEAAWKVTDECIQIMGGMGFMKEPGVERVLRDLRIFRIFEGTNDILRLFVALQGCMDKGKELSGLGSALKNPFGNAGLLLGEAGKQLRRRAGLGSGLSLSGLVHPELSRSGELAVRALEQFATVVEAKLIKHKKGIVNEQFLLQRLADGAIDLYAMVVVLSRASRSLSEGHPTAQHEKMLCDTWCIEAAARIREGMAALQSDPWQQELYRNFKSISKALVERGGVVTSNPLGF

[2] = molecular target: T2, Serine/threonine-protein kinase TAO2 (Homo sapiens, UniProt Q9UL54)
T2 sequence (Q9UL54 whole entry): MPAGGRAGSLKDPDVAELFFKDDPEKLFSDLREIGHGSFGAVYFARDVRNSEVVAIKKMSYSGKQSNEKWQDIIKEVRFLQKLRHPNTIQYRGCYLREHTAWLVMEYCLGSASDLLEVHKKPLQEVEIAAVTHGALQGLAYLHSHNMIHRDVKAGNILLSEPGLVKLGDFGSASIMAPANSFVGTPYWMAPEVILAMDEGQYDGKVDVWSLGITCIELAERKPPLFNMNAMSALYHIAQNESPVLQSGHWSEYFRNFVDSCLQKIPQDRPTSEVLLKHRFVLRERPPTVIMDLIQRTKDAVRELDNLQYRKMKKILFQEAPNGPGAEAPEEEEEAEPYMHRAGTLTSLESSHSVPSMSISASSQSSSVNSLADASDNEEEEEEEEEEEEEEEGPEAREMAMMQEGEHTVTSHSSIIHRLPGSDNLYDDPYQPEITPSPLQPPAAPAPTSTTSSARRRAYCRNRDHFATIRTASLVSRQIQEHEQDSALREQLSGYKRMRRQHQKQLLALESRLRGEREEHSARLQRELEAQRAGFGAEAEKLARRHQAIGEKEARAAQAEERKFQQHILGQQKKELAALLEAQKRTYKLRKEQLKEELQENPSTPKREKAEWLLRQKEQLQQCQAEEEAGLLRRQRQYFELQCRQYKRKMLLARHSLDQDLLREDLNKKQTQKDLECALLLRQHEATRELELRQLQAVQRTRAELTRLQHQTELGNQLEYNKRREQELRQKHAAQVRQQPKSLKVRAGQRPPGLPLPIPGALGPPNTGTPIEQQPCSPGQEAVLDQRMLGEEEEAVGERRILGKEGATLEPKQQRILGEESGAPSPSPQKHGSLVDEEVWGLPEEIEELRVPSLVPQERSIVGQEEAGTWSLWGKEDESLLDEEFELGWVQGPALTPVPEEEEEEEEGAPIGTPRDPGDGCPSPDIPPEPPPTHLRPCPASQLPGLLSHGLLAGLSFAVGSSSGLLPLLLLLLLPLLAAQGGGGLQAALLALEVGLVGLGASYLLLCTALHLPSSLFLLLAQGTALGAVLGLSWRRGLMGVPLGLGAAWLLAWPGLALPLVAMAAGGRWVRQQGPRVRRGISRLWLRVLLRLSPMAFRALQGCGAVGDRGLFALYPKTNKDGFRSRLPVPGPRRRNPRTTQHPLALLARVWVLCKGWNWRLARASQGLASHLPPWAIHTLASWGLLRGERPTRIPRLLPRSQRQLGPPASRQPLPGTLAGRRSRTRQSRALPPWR

[3] = molecular target: T3, Serine/threonine-protein kinase NLK (Homo sapiens, UniProt Q9UBE8)
T3 sequence (Q9UBE8 whole entry): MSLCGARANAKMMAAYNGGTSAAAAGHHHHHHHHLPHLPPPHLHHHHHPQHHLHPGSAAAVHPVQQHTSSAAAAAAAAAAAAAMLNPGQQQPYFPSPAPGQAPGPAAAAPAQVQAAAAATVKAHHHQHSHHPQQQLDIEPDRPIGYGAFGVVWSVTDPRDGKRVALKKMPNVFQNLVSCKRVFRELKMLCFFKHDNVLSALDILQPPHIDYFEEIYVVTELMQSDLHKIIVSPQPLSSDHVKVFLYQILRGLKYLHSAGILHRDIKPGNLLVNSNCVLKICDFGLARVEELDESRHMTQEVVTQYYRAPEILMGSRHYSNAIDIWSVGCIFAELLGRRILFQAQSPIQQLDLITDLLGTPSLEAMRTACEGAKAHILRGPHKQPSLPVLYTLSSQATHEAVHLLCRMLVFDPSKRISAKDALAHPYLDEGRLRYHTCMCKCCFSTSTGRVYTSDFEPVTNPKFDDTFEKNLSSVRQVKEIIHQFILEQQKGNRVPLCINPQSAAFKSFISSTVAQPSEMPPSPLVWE

[4] = molecular target: Elongation factor Tu, mitochondrial (Homo sapiens, UniProt P49411)
[5] = molecular target: Ribosomal protein S6 kinase alpha-3 (Homo sapiens, UniProt P51812)
LIM domain kinase 1 = LIM domain kinase 1 (Homo sapiens, UniProt P53667)

Measured: Kd
Note: in the data inactive means no Kd found up to 30 µM.

Ribosomal protein S6 kinase alpha-3, sequence (P51812 whole entry, the tested form may be a part): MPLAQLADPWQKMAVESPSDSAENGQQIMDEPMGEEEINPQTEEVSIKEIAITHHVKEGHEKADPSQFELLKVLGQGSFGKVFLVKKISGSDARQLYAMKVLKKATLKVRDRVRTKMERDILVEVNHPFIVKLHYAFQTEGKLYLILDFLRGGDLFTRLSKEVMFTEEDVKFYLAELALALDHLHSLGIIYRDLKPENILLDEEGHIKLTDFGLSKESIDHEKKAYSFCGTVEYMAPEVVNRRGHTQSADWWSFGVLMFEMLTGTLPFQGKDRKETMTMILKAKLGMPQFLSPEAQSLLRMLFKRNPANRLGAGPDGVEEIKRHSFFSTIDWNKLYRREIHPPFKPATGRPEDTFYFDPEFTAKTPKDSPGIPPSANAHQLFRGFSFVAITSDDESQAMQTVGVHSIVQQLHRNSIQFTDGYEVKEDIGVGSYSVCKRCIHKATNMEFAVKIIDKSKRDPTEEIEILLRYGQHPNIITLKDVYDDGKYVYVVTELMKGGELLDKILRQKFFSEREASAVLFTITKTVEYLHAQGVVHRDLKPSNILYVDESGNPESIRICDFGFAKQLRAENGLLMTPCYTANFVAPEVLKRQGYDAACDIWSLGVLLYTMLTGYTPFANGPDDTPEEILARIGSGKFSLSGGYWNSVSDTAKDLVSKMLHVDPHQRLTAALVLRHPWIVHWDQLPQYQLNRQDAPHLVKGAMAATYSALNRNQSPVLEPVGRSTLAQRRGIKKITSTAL
LIM domain kinase 1, sequence (P53667 whole entry, the tested form may be a part): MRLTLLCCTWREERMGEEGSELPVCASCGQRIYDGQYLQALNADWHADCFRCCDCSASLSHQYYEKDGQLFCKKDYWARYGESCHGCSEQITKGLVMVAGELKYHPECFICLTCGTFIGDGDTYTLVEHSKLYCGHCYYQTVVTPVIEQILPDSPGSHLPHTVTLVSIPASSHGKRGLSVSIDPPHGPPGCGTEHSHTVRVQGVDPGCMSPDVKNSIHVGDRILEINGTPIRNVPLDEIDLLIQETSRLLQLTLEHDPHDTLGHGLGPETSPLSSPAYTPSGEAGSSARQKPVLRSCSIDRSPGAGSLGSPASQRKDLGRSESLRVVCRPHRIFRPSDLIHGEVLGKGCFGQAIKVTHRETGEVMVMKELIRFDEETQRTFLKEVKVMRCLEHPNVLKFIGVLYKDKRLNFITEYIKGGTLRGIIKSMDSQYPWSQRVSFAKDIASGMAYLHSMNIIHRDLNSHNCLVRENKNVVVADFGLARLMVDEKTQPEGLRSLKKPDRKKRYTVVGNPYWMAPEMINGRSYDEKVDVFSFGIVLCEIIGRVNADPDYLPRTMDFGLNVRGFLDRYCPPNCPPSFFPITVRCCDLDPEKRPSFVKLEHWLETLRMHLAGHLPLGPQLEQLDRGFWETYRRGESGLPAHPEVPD

CCN(CCCOc1ccc2c(Nc3cc(CC(=O)Nc4cccc(F)c4)n[nH]3)ncnc2c1)CCOP(=O)(O)O [BARASERTIB]
inactive: [1] > 30 µM | [2] > 30 µM | [3] > 30 µM | [4] > 30 µM

C=CCn1c(=O)c2cnc(Nc3ccc(N4CCN(C)CC4)cc3)nc2n1-c1cccc(C(C)(C)O)n1 [ADAVOSERTIB]
inactive: [1] > 30 µM | [2] > 30 µM | [3] > 30 µM | [4] > 30 µM

COc1cc2ncnc(Nc3ccc(F)c(Cl)c3)c2cc1NC(=O)/C=C/CN1CCCCC1 [DACOMITINIB ANHYDROUS]
inactive: [1] > 30 µM | [5] > 30 µM | [2] > 30 µM | [3] > 30 µM | [4] > 30 µM | LIM domain kinase 1 > 30 µM

COCCN1CCN(Cc2ccc(-c3n[nH]c4c3C(=O)c3c(NC(=O)NN5CCOCC5)cccc3-4)cc2)CC1 [RGB-286638]
inactive: [1] > 30 µM | [5] > 30 µM | [2] > 30 µM | [3] > 30 µM | [4] > 30 µM | LIM domain kinase 1 > 30 µM

O=C(NOC[C@H](O)CO)c1ccc(F)c(F)c1Nc1ccc(I)cc1F [MIRDAMETINIB]
inactive: [1] > 30 µM | [5] > 30 µM | [2] > 30 µM | [3] > 30 µM | [4] > 30 µM | LIM domain kinase 1 > 30 µM

CNC(=O)c1cccc(-c2ccc3c(N4CCOC[C@@H]4C)nc(N4CCOC[C@@H]4C)nc3n2)c1 [VISTUSERTIB]
inactive: [1] > 30 µM | [5] > 30 µM | [2] > 30 µM | [3] > 30 µM | [4] > 30 µM | LIM domain kinase 1 > 30 µM

COc1cc2nccc(Oc3ccc(NC(=O)C4(C(=O)Nc5ccc(F)cc5)CC4)cc3)c2cc1OC [CABOZANTINIB]
inactive: [1] > 30 µM | [5] > 30 µM | [2] > 30 µM | [3] > 30 µM | [4] > 30 µM | LIM domain kinase 1 > 30 µM

Cc1cc(Nc2nc(N[C@@H](C)c3ncc(F)cn3)ncc2Cl)n[nH]1 [AZD-1480]
inactive: [1] > 30 µM | [5] > 30 µM | [2] > 30 µM | [3] > 30 µM | [4] > 30 µM | LIM domain kinase 1 > 30 µM

COc1cc2c(N3CCN(C(=O)Nc4ccc(OC(C)C)cc4)CC3)ncnc2cc1OCCCN1CCCCC1 [TANDUTINIB]
inactive: [1] > 30 µM | [4] > 30 µM

COc1cc2c(Oc3ccc4[nH]c(C)cc4c3F)ncnc2cc1OCCCN1CCCC1 [CEDIRANIB]
inactive: [1] > 30 µM | [4] > 30 µM

Cn1cnc2c(F)c(Nc3ccc(Br)cc3Cl)c(C(=O)NOCCO)cc21 [SELUMETINIB]
inactive: [1] > 30 µM | [4] > 30 µM

CN(C)C/C=C/C(=O)Nc1cc2c(Nc3ccc(F)c(Cl)c3)ncnc2cc1O[C@H]1CCOC1 [AFATINIB]
inactive: [1] > 30 µM | [4] > 30 µM

CN(c1ncccc1CNc1nc(Nc2ccc3c(c2)CC(=O)N3)ncc1C(F)(F)F)S(C)(=O)=O [PF-00562271]
inactive: [1] > 30 µM | [2] > 30 µM | [3] > 30 µM | [4] > 30 µM

c1cc(OCCN2CCCCC2)cc(-c2n[nH]c3ccc(-c4nc[nH]n4)cc23)c1 [CC-401]
inactive: [5] > 30 µM | [2] > 30 µM | [3] > 30 µM | [4] > 30 µM | LIM domain kinase 1 > 30 µM

NC(=O)c1ccc(N(C(N)=O)c2c(F)cccc2F)nc1-c1ccc(F)cc1F [VX-702]
inactive: [1] > 30 µM | [5] > 30 µM | [2] > 30 µM | [4] > 30 µM | LIM domain kinase 1 > 30 µM

CC(C)CC(=O)Nc1[nH]nc2c1CN(C(=O)C1CCN(C)CC1)C2(C)C [PHA-793887]
inactive: [1] > 30 µM | [5] > 30 µM | [2] > 30 µM | [4] > 30 µM | LIM domain kinase 1 > 30 µM

CC1(C)CNc2cc(NC(=O)c3cccnc3NCc3ccncc3)ccc21 [MOTESANIB]
inactive: [1] > 30 µM | [4] > 30 µM

C[C@@]1(C(=O)Nc2ccc(F)nc2)CCCN1c1nc(Nc2cc(C3CC3)n[nH]2)c2cccn2n1 [BMS-754807]
inactive: [1] > 30 µM | [4] > 30 µM

O=S(=O)(c1cccc2cnccc12)N1CCCNCC1 [FASUDIL]
inactive: [1] > 30 µM | [2] > 30 µM | [3] > 30 µM | [4] > 30 µM

C[C@]1(O)C[C@@H](c2nc(-c3ccc4ccc(-c5ccccc5)nc4c3)c3c(N)nccn32)C1 [LINSITINIB]
inactive: [1] > 30 µM | [3] > 30 µM | [4] > 30 µM | LIM domain kinase 1 > 30 µM

Cn1c(=O)n(-c2ccc(C(C)(C)C#N)cc2)c2c3cc(-c4cnc5ccccc5c4)ccc3ncc21 [DACTOLISIB]
inactive: [1] > 30 µM | [2] > 30 µM | [3] > 30 µM | [4] > 30 µM
